In patent US20100316732A1, “BEVERAGE COMPOSITIONS FOR THE PROMOTION OF JOINT HEALTH IN COMPANION ANIMALS” (priority 2008, published 2010):

Test: Maximum solubility per liter of the active ingredients
Format: physicochemical
Settings: active ingredient of aqueous canine water formula

Maximum Solubility/Liter: 1100 µg/mL
SMILES: [Cl-].[Cl-].[Mg+2] [Magnium chloride]
